Laboratory results as given in the NIST ThermoML archive (doi:10.1007/s10765-005-5567-5).
± gives the expanded uncertainty stated by the source.

Assay: mn = molality of the nth substance listed, in mol/kg
Conditions: Liquid; for viscosity: Capillary tube (Ostwald / Ubbelohde) method; for thermal conductivity: Coaxial cylinder method

O=S(=O)([O-])[O-].[K+].[K+] [potassium sulfate] + O
Conditions | thermal conductivity, 10000 kPa [W/m/K] | thermal conductivity, 30000 kPa [W/m/K] | viscosity, 10 kPa [mPa·s] | viscosity, 20 kPa [mPa·s] | viscosity, 30 kPa [mPa·s]
397.25 K, m1 = 0.305 | – | – | – | 0.2531 ± 0.0079 | 0.2565 ± 0.008
398.55 K, m1 = 0.0658 | – | – | 0.2289 ± 0.0071 | 0.2321 ± 0.0072 | 0.236 ± 0.0073
422.05 K, m1 = 0.407 | – | – | 0.2131 ± 0.0066 | 0.2154 ± 0.0067 | 0.2189 ± 0.0068
423 K, m1 = 0.499 | 0.678 ± 0.019 | 0.69 ± 0.019 | – | – | –
423.3 K, m1 = 0.782 | 0.671 ± 0.019 | 0.684 ± 0.019 | – | – | –
423.55 K, m1 = 0.305 | – | – | 0.204 ± 0.0064 | 0.2068 ± 0.0064 | 0.2096 ± 0.0065
423.6 K, m1 = 0.239 | 0.683 ± 0.019 | 0.696 ± 0.02 | – | – | –
423.85 K, m1 = 0.0658 | – | – | 0.1881 ± 0.0059 | 0.1926 ± 0.006 | 0.196 ± 0.0061
425.45 K, m1 = 0.2055 | – | – | 0.1946 ± 0.0061 | 0.1974 ± 0.0062 | 0.2 ± 0.0062
446.85 K, m1 = 0.407 | – | – | 0.1811 ± 0.0056 | 0.184 ± 0.0057 | 0.1867 ± 0.0058
447.35 K, m1 = 0.0658 | – | – | 0.1613 ± 0.0051 | 0.1645 ± 0.0052 | 0.166 ± 0.0052
448.1 K, m1 = 0.782 | 0.665 ± 0.019 | 0.681 ± 0.019 | – | – | –
448.35 K, m1 = 0.2055 | – | – | 0.1679 ± 0.0052 | 0.1705 ± 0.0053 | 0.1732 ± 0.0054
448.55 K, m1 = 0.305 | – | – | 0.1735 ± 0.0054 | 0.1769 ± 0.0055 | 0.179 ± 0.0056
448.7 K, m1 = 0.239 | 0.678 ± 0.019 | 0.691 ± 0.019 | – | – | –
449.8 K, m1 = 0.499 | 0.672 ± 0.019 | 0.686 ± 0.019 | – | – | –
470.75 K, m1 = 0.407 | – | – | 0.1586 ± 0.005 | 0.1605 ± 0.005 | 0.1641 ± 0.0051
472.05 K, m1 = 0.0658 | – | – | 0.1403 ± 0.0044 | 0.1436 ± 0.0045 | 0.146 ± 0.0046
472.9 K, m1 = 0.499 | 0.659 ± 0.019 | 0.676 ± 0.019 | – | – | –
473.4 K, m1 = 0.239 | 0.665 ± 0.019 | 0.681 ± 0.019 | – | – | –
473.8 K, m1 = 0.782 | 0.652 ± 0.018 | 0.671 ± 0.019 | – | – | –
475.85 K, m1 = 0.305 | – | – | 0.1492 ± 0.0047 | 0.1521 ± 0.0048 | 0.1545 ± 0.0048
477.45 K, m1 = 0.2055 | – | – | 0.143 ± 0.0045 | 0.1456 ± 0.0046 | 0.1482 ± 0.0047
496.35 K, m1 = 0.0658 | – | – | 0.1244 ± 0.0039 | 0.1276 ± 0.004 | 0.13 ± 0.0041
497.45 K, m1 = 0.2055 | – | – | 0.1294 ± 0.0041 | 0.1322 ± 0.0042 | 0.1348 ± 0.0042
498.3 K, m1 = 0.499 | 0.639 ± 0.018 | 0.657 ± 0.018 | – | – | –
498.5 K, m1 = 0.239 | 0.644 ± 0.018 | 0.664 ± 0.019 | – | – | –
498.55 K, m1 = 0.407 | – | – | 0.1388 ± 0.0044 | 0.1409 ± 0.0044 | 0.1444 ± 0.0045
498.6 K, m1 = 0.782 | 0.632 ± 0.018 | 0.65 ± 0.018 | – | – | –
499.95 K, m1 = 0.305 | – | – | 0.1332 ± 0.0042 | 0.1369 ± 0.0043 | 0.14 ± 0.0044
523.05 K, m1 = 0.2055 | – | – | 0.1162 ± 0.0037 | 0.1191 ± 0.0038 | 0.1219 ± 0.0039
523.2 K, m1 = 0.499 | 0.61 ± 0.017 | 0.63 ± 0.018 | – | – | –
523.3 K, m1 = 0.239 | 0.617 ± 0.017 | 0.637 ± 0.018 | – | – | –
523.85 K, m1 = 0.407 | – | – | 0.1248 ± 0.0039 | 0.1286 ± 0.0041 | 0.1307 ± 0.0041
523.9 K, m1 = 0.782 | 0.602 ± 0.017 | 0.623 ± 0.018 | – | – | –
524.45 K, m1 = 0.0658 | – | – | 0.1097 ± 0.0035 | 0.1135 ± 0.0036 | 0.116 ± 0.0037
527.35 K, m1 = 0.305 | – | – | 0.1185 ± 0.0038 | 0.1216 ± 0.0039 | 0.1243 ± 0.0039
541.55 K, m1 = 0.407 | – | – | 0.1171 ± 0.0037 | 0.12 ± 0.0038 | 0.1236 ± 0.0039
545.05 K, m1 = 0.0658 | – | – | 0.1008 ± 0.0032 | 0.1045 ± 0.0033 | 0.1072 ± 0.0034
547.9 K, m1 = 0.239 | 0.584 ± 0.016 | 0.61 ± 0.017 | – | – | –
548.2 K, m1 = 0.499 | 0.577 ± 0.016 | 0.604 ± 0.017 | – | – | –
548.45 K, m1 = 0.305 | – | – | 0.1087 ± 0.0035 | 0.1119 ± 0.0036 | 0.115 ± 0.0037
548.5 K, m1 = 0.782 | 0.57 ± 0.016 | 0.598 ± 0.017 | – | – | –
550.55 K, m1 = 0.2055 | – | – | 0.1039 ± 0.0033 | 0.1072 ± 0.0034 | 0.1105 ± 0.0035
571.55 K, m1 = 0.0658 | – | – | 0.0902 ± 0.0029 | 0.094 ± 0.003 | 0.0972 ± 0.0031
573.2 K, m1 = 0.499 | 0.534 ± 0.015 | 0.568 ± 0.016 | – | – | –
573.2 K, m1 = 0.782 | 0.525 ± 0.015 | 0.56 ± 0.016 | – | – | –
573.35 K, m1 = 0.305 | – | – | 0.0976 ± 0.0031 | 0.1016 ± 0.0033 | 0.1035 ± 0.0033
573.8 K, m1 = 0.239 | 0.54 ± 0.015 | 0.574 ± 0.016 | – | – | –
574.35 K, m1 = 0.2055 | – | – | 0.094 ± 0.003 | 0.0973 ± 0.0031 | 0.1014 ± 0.0033
575.25 K, m1 = 0.407 | – | – | 0.1021 ± 0.0033 | 0.1067 ± 0.0034 | 0.1102 ± 0.0035
